Read-outs that look alike come from different tables or passages of the source. Where only a bound is given, the exact number is not on record here.

These results are taken from patent US7282507B2, “Indole derivatives as selective androgen receptor modulators (SARMS)” (Janssen Pharmaceutica N.V., priority 2004, dated 2007).

In assay [1] the target is T1, androgen receptor (AdEasy+rAR, L929 cells) (Rattus norvegicus, UniProt P15207).
T1 construct: expressed in transfected cells; host or cells: L929 cells transduced with adenovirus AdEasy+rAR
T1 sequence (P15207 1-902): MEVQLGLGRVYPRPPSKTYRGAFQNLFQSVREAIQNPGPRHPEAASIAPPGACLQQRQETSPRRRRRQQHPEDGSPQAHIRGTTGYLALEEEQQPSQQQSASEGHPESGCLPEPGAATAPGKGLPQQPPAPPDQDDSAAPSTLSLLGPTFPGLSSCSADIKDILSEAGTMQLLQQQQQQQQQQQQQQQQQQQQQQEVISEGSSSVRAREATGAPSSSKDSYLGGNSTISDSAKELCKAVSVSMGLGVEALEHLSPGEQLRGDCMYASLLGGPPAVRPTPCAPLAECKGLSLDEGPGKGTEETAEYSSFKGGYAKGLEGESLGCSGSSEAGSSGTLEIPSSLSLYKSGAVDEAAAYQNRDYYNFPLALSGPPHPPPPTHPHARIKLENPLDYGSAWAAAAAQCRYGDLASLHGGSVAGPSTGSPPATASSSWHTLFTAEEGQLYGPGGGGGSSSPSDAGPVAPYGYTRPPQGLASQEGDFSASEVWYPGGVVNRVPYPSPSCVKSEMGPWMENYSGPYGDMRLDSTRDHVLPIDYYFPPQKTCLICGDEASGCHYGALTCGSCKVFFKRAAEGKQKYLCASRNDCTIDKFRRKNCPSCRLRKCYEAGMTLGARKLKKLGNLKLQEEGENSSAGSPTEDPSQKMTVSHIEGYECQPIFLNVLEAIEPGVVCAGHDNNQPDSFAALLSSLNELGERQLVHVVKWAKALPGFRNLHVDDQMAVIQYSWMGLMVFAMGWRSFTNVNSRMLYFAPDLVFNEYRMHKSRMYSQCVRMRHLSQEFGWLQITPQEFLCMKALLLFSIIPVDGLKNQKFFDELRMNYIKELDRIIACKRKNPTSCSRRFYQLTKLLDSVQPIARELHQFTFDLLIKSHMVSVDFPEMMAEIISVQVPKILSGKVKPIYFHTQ
The assay can be described thus: L929 Androgen Receptor Functional Assay, Adenovirus Transduction. As to conditions: for inhibition at 3 µM: L929, antagonist testing with R1881, 3000 nM; for % Activity, L929 androgen receptor functional assay / EC50: agonist testing; for IC50: antagonist testing with R1881. It is filed as cell-based. Summed up:
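Luminescent reporter readout after 48 h at 37 °C: rat AR delivered by adenovirus (AdEasy+rAR, moi 1:500) into L929 cells grown without phenol red in charcoal-treated serum. Antagonist wells also received R1881 (2.5× dilution at 2.5 nM).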

In assay [2] the target is T2, androgen receptor (AdEasy+rAR, COS-7 cells) (Rattus norvegicus, UniProt P15207).
T2 construct: expressed in transfected cells; host or cells: COS-7 cells transduced with adenovirus AdEasy+rAR
T2 sequence (P15207 1-902): T1 sequence (P15207 1-902)
Kind of assay: COS-7 Whole-Cell Androgen Receptor Binding Assay, Adenovirus Transduction. Conditions: for inhibition at 3 µM / % Inhibition, COS Binding: concentration of 3000 nM. How it is done: COS-7 cells were plated in 96-well plates at 20,000 cells per well, in a solution of DMEM/F12 (GIBCO) containing 10% (v/v) charcoal-treated fetal bovine serum (Hyclone) and lacking phenol red. The cells were then incubated overnight at 37° C. in 5% (v/v) humidified CO2.
Test compound solutions were prepared by diluting the test compound in 100% (v/v) DMSO, if necessary.
Next, 1 mL of DMEM/F12 lacking phenol red was pipetted into each of the wells of a 2-mL 96-well assay block. […] The wells were carefully mixed by pipette.
In a 15 mL or 50 mL sterile centrifuge tube, a dilution in DMEM/F12 of the adenovirus AdEasy+rAR at a moi of 1:50 per well was prepared.
The medium was removed from the 96-well plates by inversion and the plates dried very briefly, inverted, on a sterile towel. As soon as possible after medium removal, 40 μL of the diluted test compound was added to each well, in duplicate. […] The plates were then incubated for 48 hours at 37° C. in 5% (v/v) humidified CO2.
The medium was removed from the above incubated plates by inversion and dried. Each well was then washed with 0.35 mL of 1× PBS. The PBS was then removed from the plates by inversion and the plates dried.
To each well was then added 50 μL of 0.5% (v/v) Triton X-100 (Sigma) in 1× PBS and the plates placed on a rotary shaker for 5 min. The contents of each well were then transferred to an OptiPlate-96 (Packard) scintillation plate. To each well was then added 0.2 mL of Microscint-20 (Packard) and the wells counted on a TopCount (Packard).
Percent inhibition was determined by testing dilutions of the test compound (usually duplicates of 10 μM) in the binding assay. Counts per well were measured and percents of inhibition determined. […] Counts per well were measured and IC50s determined by linear regression.

Assay [3] has as its system testosterone-enhanced ventral prostate and seminal vesicle weights. The assay can be described thus: Ventral Prostate and Seminal Vesicle Weight in vivo Assay. Further: key: 'active' if the non weight adjusted prostate weight was ≦40 mg or the % Inhibition prostate weight, body weight adjusted was ≧40% @ 2 mg/day dosage; ID50's, if determined, of ≦15 mg/day also indicated an 'active' compound; listed herein as 'inactive' as they did not meet the specified criteria defined above. Also on record: species or system rat. As to conditions: immature castrated male Sprague Dawley rats, once daily for five days, usually orally 40 mg/kg, with testosterone propionate 2 mg/kg s.c. In short, it runs like this:
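Wet weights of ventral prostate and seminal vesicles were taken on day six. Castrated immature male Sprague Dawley rats had received five daily doses of testosterone propionate (2 mg/kg s.c.) together with test compound, typically 40 mg/kg orally. Activity was scored from absolute prostate weight or body-weight-adjusted % inhibition.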

Setting [4] is: read-out: IC50 (nM), COS Binding.

Consider `CCSCC(C)(OC)c1cc2cc(C#N)c(C(F)(F)F)cc2n1C` (stereo not drawn) [Compound 235], for which the inhibition (in general, the relative decrease from the control value, in per cent) at 3 µM was found to be 95% in assay [1] and 78% in assay [2]. For the same compound, the “% Activity, L929 androgen receptor functional assay” value (from here on “% Activity”) in assay [1] (3000 nM) came out at 3%. The IC50 – broadly, the concentration that gives 50% inhibition – in assay [1] was determined as 1840 nM; in assay [2] (setting [4]), 520 nM. Besides, the “active / inactive: inhibition of testosterone-enhanced prostate weight” value (“active / inactive: inhibition” for short) in assay [3] was “inactive”.

Turning to `CCS(=O)(=O)CC(C)(O)c1[nH]c2cc(C(F)(F)F)c(C#N)cc2c1C` (single isomer, unassigned) [Compound 251, 2-(2-Ethanesulfonyl-1-hydroxy-1-methyl-ethyl)-3-methyl-6-trifluoromethyl-1H-indole-5-carbonitrile], the “% Activity” value in assay [1] (3000 nM, 3 µM) was −1%. The half-inhibitory concentration (IC50) in assay [1] turned out to be 200 nM; in assay [2] (setting [4]), 220 nM. Also, in assay [2], the inhibition at 3 µM was found to be 85%. The “active / inactive: inhibition” value in assay [3] is “active”.

In the case of `CC(O)(CSCC(F)(F)F)c1[nH]c2cc(C(F)(F)F)c([N+](=O)[O-])cc2c1I` (stereo not drawn) [Compound 213], in assay [1], the inhibition at 3 µM worked out at 92%; the EC50 – broadly, the concentration at which the effect is half-maximal – was > 8000 nM; half-maximal inhibition (IC50) was put at 372 nM. In addition, the “% Activity” value in assay [1] (@ 8000 nM) was −1 @ 8000 nM %. Further, the inhibition at 3 µM in assay [2] stood at 71%. In assay [2] (setting [4]), the IC50 was > 600 nM. For the same compound, in assay [3], the “active / inactive: inhibition” value was “active”.

Take `CCC(O)(CSCC(F)(F)F)c1cc2cc(Cl)c(C(F)(F)F)cc2[nH]1` (stereo not drawn) [Compound 192]: the inhibition at 3 µM in assay [1] was determined as 89%; in assay [2], 86%. In assay [1] (3000 nM), the “% Activity” value stood at 8%. Besides, in assay [2] (setting [4]), the half-maximal inhibitory concentration (IC50) came to 82 nM. Also, the “active / inactive: inhibition” value in assay [3] is on record as “active”.

For the compound `CCSCC(C)(O)c1cc2cc(Br)c(C(F)(F)F)cc2[nH]1` (stereo not drawn) [Compound 220], the inhibition at 3 µM in assay [1] was 103%. In addition, the “% Activity” value in assay [1] (3000 nM) was −3%. Also, the IC50 in assay [2] (setting [4]) turned out to be 34 nM. Also, the “active / inactive: inhibition” value in assay [3] was “inactive”.

On to `CN(C)c1ccc(SCC(C)(O)c2cc3cc(Cl)c(C(F)(F)F)cc3[nH]2)cc1` (stereo not drawn) [Compound 124], for which the “% Activity” value in assay [1] (3000 nM) is −4%. For the same compound, in assay [2] (setting [4]), the IC50 is > 3000 nM. Besides, the “active / inactive: inhibition” value in assay [3] was “inactive”.

Turning to `CCC(O)(CSCC(F)(F)F)c1cc2cc(F)c(C(F)(F)F)cc2[nH]1` (stereo not drawn) [Compound 194], the inhibition at 3 µM was 40% in assay [1] and 80% in assay [2]. Also, the “% Activity” value in assay [1] (3000 nM) is reported as 2%. For the same compound, the IC50 in assay [2] (setting [4]) was found to be 320 nM. The “active / inactive: inhibition” value in assay [3] was “inactive”.

`CCC(O)(CSCC(F)(F)F)c1cc2cc([N+](=O)[O-])c(C(F)(F)F)cc2[nH]1` (stereo not drawn) [Compound 185]: the figures for the inhibition at 3 µM in assay [1] and in assay [2] were 97% and 92%, respectively. Further, the “% Activity” value in assay [1] (3000 nM) came to 2%. Also, in assay [2] (setting [4]), the IC50 was determined as 61 nM. Moreover, the “active / inactive: inhibition” value in assay [3] is “active”.

Regarding `CCSCC(C)(O)c1cc2cc(F)c(C(F)(F)F)cc2[nH]1` (stereo not drawn) [Compound 159], the “% Activity” value in assay [1] (3000 nM) stood at 2%. For the same compound, in assay [2] (setting [4]), the IC50 was 240 nM. Further, the “active / inactive: inhibition” value in assay [3] is given as “active”.

Turning to `CC(O)(CSc1ccccc1N)c1cc2cc(Cl)c(C(F)(F)F)cc2[nH]1` (stereo not drawn) [Compound 123], the “% Activity” value in assay [1] (3000 nM) is listed as −4%; in assay [1] (@ 8000 nM) it was 1 @ 8000 nM %. The concentration for half-maximal inhibition (IC50) in assay [2] (setting [4]) was > 3000 nM. In addition, the “active / inactive: inhibition” value in assay [3] was “inactive”.

In the case of `CC(O)(CSCC(F)(F)F)c1cc2cc([N+](=O)[O-])c(C(F)(F)F)cc2[nH]1` (single isomer, unassigned) [Compound 202], the “% Activity” value in assay [1] (3000 nM, 3 µM) turned out to be 1%. The “% Inhibition, COS Binding” value in assay [2] (3 µM) amounted to 50%. Moreover, the “active / inactive: inhibition” value in assay [3] was “active”.

As to `CC(O)(CS(C)(=O)=O)c1cc2cc(Cl)c(C(F)(F)F)cc2n1S(C)(=O)=O` (stereo not drawn) [Compound 137], the inhibition at 3 µM in assay [1] was 77%; in assay [2], 73%. In assay [1] (3000 nM), the “% Activity” value was 0%. Also, in assay [2] (IC50 (nM), COS Binding), the IC50 was > 1500 nM. In addition, the “active / inactive: inhibition” value in assay [3] is “inactive”.

On to `CC(O)(CSCc1cccs1)c1cc2cc([N+](=O)[O-])c(C(F)(F)F)cc2[nH]1` (stereo not drawn) [Compound 197], for which the values for the inhibition at 3 µM in assay [1] and in assay [2] were -26% and 86%, respectively. Moreover, the “% Activity” value in assay [1] (3000 nM) worked out at 2%. Further, the 50% inhibitory concentration (IC50) in assay [2] (setting [4]) was > 3000 nM. Besides, in assay [3], the “active / inactive: inhibition” value is “inactive”.

Regarding `CCS(=O)(=O)CC(C)(O)c1[nH]c2cc(C(F)(F)F)c(C#N)cc2c1C` (single isomer, unassigned) [Compound 252], the “% Activity” value in assay [1] (3000 nM, 3 µM) was 1%. For the same compound, the IC50 was 3100 nM in assay [1] and > 3000 nM in assay [2] (setting [4]). The “% Inhibition, L929 androgen receptor functional assay” value in assay [1] (antagonist testing with R1881, 3000 nM, 3 µM) is 65%. Moreover, the “% Inhibition, COS Binding” value in assay [2] (3 µM) was found to be 68%. Further, the “active / inactive: inhibition” value in assay [3] is “active”.

For `CCSCC(C)(O)c1cc2cc(C#N)c(C(F)(F)F)cc2n1C` (stereo not drawn) [Compound 236], the inhibition at 3 µM in assay [1] amounted to 103%; in assay [2] it was 83%. In addition, in assay [1] (3000 nM), the “% Activity” value was 2%. Besides, the IC50 is 821 nM in assay [1] and 105 nM in assay [2] (setting [4]). Further, the “active / inactive: inhibition” value in assay [3] is “active”.

Consider `CCSCC(C)(O)c1cc2cc(C#N)c(C(F)(F)F)cc2[nH]1` (stereo not drawn) [Compound 209], for which, in assay [1], the EC50 was > 8000 nM and it took 372 nM to reach half-maximal inhibition (IC50). Further, the “% Activity” value in assay [1] (@ 8000 nM) is given as −3 @ 8000 nM %. Also, the inhibition at 3 µM in assay [2] was determined as 61%. Further, the IC50 in assay [2] (setting [4]) stood at 1840 nM. The “active / inactive: inhibition” value in assay [3] is reported as “active”.

Take `C[S+]([O-])CCC(C)(O)c1cc2cc([N+](=O)[O-])c(C(F)(F)F)cc2[nH]1` (mixture of isomers) [Compound 50]: the “% Activity” value in assay [1] (3000 nM) stood at 2%. The “% Inhibition, COS Binding” value in assay [2] is recorded as 7%. The “active / inactive: inhibition” value in assay [3] is “inactive”.
